Reference: paper PMC9371267 (PLoS Biology, 2022)
Where a chain is given by its changes, count along the chain named.

Assays:
Type in all cases: cell-based
[1] = target: T1, GALR2 H176^ECL2A mutant (Homo sapiens, UniProt O43603, H176A); experiment: NanoBiT-based Gq activation assay, H176^ECL2A; settings: HEK293-A; HEK293A; expression ~WT (1:1); normalized to WT (1:1); mean ± SEM, n = 3; ns p > 0.05 vs expression-matched WT
T1 construct: expressed in transfected cells; host or cells: HEK293A
T1 sequence (O43603 1-387 H176A): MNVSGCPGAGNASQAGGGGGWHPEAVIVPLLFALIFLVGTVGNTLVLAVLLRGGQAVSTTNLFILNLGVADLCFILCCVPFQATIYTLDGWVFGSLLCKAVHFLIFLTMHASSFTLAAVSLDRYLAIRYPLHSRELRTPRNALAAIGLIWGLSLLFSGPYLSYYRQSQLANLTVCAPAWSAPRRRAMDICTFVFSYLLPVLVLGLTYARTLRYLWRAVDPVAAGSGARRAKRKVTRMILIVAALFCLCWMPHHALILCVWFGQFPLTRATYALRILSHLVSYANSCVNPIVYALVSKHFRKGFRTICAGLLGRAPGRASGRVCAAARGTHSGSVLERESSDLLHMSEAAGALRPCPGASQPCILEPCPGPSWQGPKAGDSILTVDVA
Procedure: (§1) After an incubation for 1 day, the transfected cells were harvested, pelleted with centrifugation, and suspended in 2 mL of Hank’s balanced saline solution containing 0.01% bovine serum albumin (BSA fatty acid–free grade, SERVA) and 5 mM HEPES (pH 7.4) (assay buffer). The cell suspension was dispensed in a white 96-well plate at a volume of 80 μl per well and mixed with 20 μl of 50 μM coelenterazine (custom-synthesized by Amadis Chemical) diluted in the assay buffer. After 2-h incubation at room temperature, the plate was measured for baseline luminescence (SpectraMax L, Molecular Devices). […] Kinetics data points from 5 min to 10 min were averaged and normalized to the initial count and used as a G-protein activation index. The G-protein activation signals were fitted to a 4-parameter sigmoidal concentration-response curve (GraphPad Prism8), and pEC50 values (negative logarithmic values of EC50 values) and Span values (“Top”–“Bottom”) were obtained. For individual experiments, we calculated Emax by normalizing Span to the WT GALR2 and ΔpEC50 by subtracting pEC50 of the WT GALR2 performed in parallel. We also calculated Emax/EC50 of GALR2 mutants relative to that of GALR2 WT, a dimensionless parameter known as relative intrinsic activity (RAi) and used its log-transformed value (Log RAi) to denote receptor activity.

[2] = target: T2, GALR2 V174^ECL2A mutant (Homo sapiens, UniProt O43603, V174A); experiment: NanoBiT-based Gq activation assay, V174^ECL2A; settings: HEK293-A; HEK293A; expression ~WT (1:5); normalized to WT (1:1); mean ± SEM, n = 3; ns p > 0.05 vs expression-matched WT
T2 construct: expressed in transfected cells; host or cells: HEK293A
T2 sequence (O43603 1-387 V174A): T1 sequence (O43603 1-387 H176A) with V174A, A176H
Procedure: as §1

[3] = target: T3, human GALR2 WT (Homo sapiens, UniProt O43603); experiment: NanoBiT-based Gq activation assay (Gq-PLCβ association), WT GALR2; settings: HEK293-A, HEK293A, normalized to WT (1:1), mean ± SEM, n = 3
T3 construct: expressed in transfected cells; host or cells: HEK293A
T3 sequence (O43603 1-387): T1 sequence (O43603 1-387 H176A) with A176H
Procedure: as §1

[4] = target: T4, GALR2 L255^6.54A mutant (Homo sapiens, UniProt O43603, L255A); experiment: NanoBiT-based Gq activation assay, L255^6.54A; settings: HEK293-A
T4 construct: expressed in transfected cells; host or cells: HEK293A
T4 sequence (O43603 1-387 L255A): T1 sequence (O43603 1-387 H176A) with A176H, L255A
Procedure: as §1

[5] = target: T5, GALR2 R184^5.35×36V mutant (Homo sapiens, UniProt O43603, R184V); experiment: NanoBiT-based Gq activation assay, R184^5.35×36V; settings: HEK293-A; HEK293A; expression ~WT (1:5); normalized to WT (1:1); mean ± SEM, n = 3; ns p > 0.05 vs expression-matched WT
T5 construct: expressed in transfected cells; host or cells: HEK293A
T5 sequence (O43603 1-387 R184V): T1 sequence (O43603 1-387 H176A) with A176H, R184V
Procedure: as §1

CC(C)C[C@H](NC(=O)CNC(=O)[C@H](CC(N)=O)NC(=O)[C@H](CCCCN)NC(=O)[C@H](CC(=O)O)NC(=O)[C@H](CO)NC(=O)[C@H](Cc1ccccc1)NC(=O)[C@H](CO)NC(=O)[C@H](CCCNC(=N)N)NC(=O)[C@H](Cc1c[nH]cn1)NC(=O)[C@H](CC(N)=O)NC(=O)CNC(=O)[C@@H](NC(=O)[C@H](C)NC(=O)[C@H](Cc1c[nH]cn1)NC(=O)[C@@H]1CCCN1C(=O)CNC(=O)[C@H](CC(C)C)NC(=O)[C@H](CC(C)C)NC(=O)[C@H](Cc1ccc(O)cc1)NC(=O)CNC(=O)[C@H](C)NC(=O)[C@H](CO)NC(=O)[C@H](CC(N)=O)NC(=O)[C@H](CC(C)C)NC(=O)[C@@H](NC(=O)[C@H](Cc1c[nH]c2ccccc12)NC(=O)CN)[C@@H](C)O)C(C)C)C(=O)N[C@H](C(=O)N[C@@H](CO)C(=O)O)[C@@H](C)O [galanin] showed an Emax [1] of 116 ± 3.4%, an Emax [2] of 72.8 ± 11.3% and an Emax ([3]; WT (1:5) plasmid) of 70.1 ± 8.7%. For the same compound, the Emax ([3]; WT (1:10) plasmid) was 48.3 ± 4.7%, the Emax ([3]; WT (1:25) plasmid) was 27.4 ± 5.1% and the Emax [4] was 64.7 ± 1.6%. For the same compound, the Emax [5] was 60 ± 6%.
